According to US7393827B2, “Pharmaceutical compositions and methods for restoring β-cell mass and function” (Diakine Therapeutics, Inc., priority 2004, dated 2008):
“Also recorded” adds a separate entry of the source. Where no end group is shown, it is not given here.

Assays:
[1] = test system: BALB/c pancreatic islets; test: Insulin secretion of isolated islets in low and high glucose (EIA/ELISA); type: cell-based, mouse; conditions: 3 days culture, LSF 50 μM, Ex-4 20 nM, 3 mM then 28 mM glucose, one-hour incubation
Experimental: FIG. 1 depicts the amount of insulin in the supernate sample as determined by EIA after one-hour incubation with each of 3 mM and subsequent 28 mM glucose medium.
(§1) For in vitro studies (Examples 1-3), freshly isolated BALB/c pancreatic islets were incubated at 37° C. with either LSF (50 μM) alone, Ex-4 (20 nM) alone, or with LSF/Ex-4 combined. After 3 days of culture, islets were treated with or without pro-inflammatory cytokines (10 ng/mL IL-1β, 20 ng/mL TNF-α, and 100 ng/mL IFN-γ) overnight. Insulin secretion was measured in low and high glucose using a standard elisa method for mouse insulin. Apoptotic islets were quantitatively assessed. MTT assay was used to evaluate cell metabolism and mitochondrial function.
(See FIG. 1 in which “*” and “^” indicate P<0.005 compared to “none” treatment group).

[2] = test system: non-obese diabetic (NOD) mice; test: Reversal of established diabetes in NOD mice, blood glucose monitoring, 28-day osmotic mini-pump; type: in vivo, mouse; conditions: LSF 27 mg/kg/day, Ex-4 18 nM/day
Experimental: FIG. 4 depicts average levels of blood glucose in 4 NOD mice groups treated with saline (control), Ex-4 alone, LSF alone and LSF and Ex-4 combined, respectively.
Pre-diabetic non-obese diabetic (NOD) mice were monitored until two consecutive blood glucose readings within a week were above 250 mg/dL. This indicated the animals had already become diabetic. At this point a mini-osmotic pump was filled with one of the following and implanted subcutaneously: • Normal saline (control) • Ex-4 • LSF • Ex-4 and LSF
Blood glucose levels in these mice were monitored, and a small dose of insulin was administered to the hyperglycemic mice to maintain euglycemia for the first few days. The pump was removed after 28 days, discontinuing treatment with the drug; however, the blood glucose levels were continually monitored for several more weeks. These mice were then sacrificed, and slide sections were prepared from their pancreases to evaluated histology and insulin staining (Example 5) and evidence for growth the new beta cells (Example 6).
These NOD were spontaneously diabetic between 20-25 weeks of age. The control groups include normal saline, LSF alone (27 mg/kg/day) and Ex-4 alone (18 nM/day). […] Four mice were in each group. Diabetes reversal was seen within 2-3 days after implantation of LSF/Ex-4 pumps, while hyperglycemia was controlled 10-12 days after LSF alone pump therapy.

[3] = test system: NOD mouse pancreatic sections; test: Brdu staining of NOD mouse pancreatic sections (cell proliferation in vivo); conditions: diabetic NOD mice treated 28 days via mini-pumps; Brdu 50 mg/kg I.P., tissue 24 hours later
Experimental: FIG. 6 depicts results of Brdu staining of NOD mouse pancreatic sections treated with saline (control), Ex-4 alone, LSF alone and LSF and Ex-4 combined, respectively.
Ex-4/LSF-associated cell proliferation in vivo was evaluated. Diabetic NOD mice that were treated with Ex-4 alone, Ex-4 plus LSF, LSF alone and normal saline for 28 days via mini-pumps were injected with Brdu (50 mg/kg) I.P. 24 hours later, pancreatic tissues were collected and stained with an anti-Brdu antibody.

[4] = test system: murine β-cell lines; conditions: previously published; cited from earlier work
[5] = test system: mouse islets exposed to pro-inflammatory cytokines (IL-1β, TNF-α, IFN-γ); test: Apoptosis of mouse islets exposed to pro-inflammatory cytokines; type: cell-based; conditions: LSF 50 μM, Ex-4 20 nM; 10 ng/mL IL-1β, 20 ng/mL TNF-α, 100 ng/mL IFN-γ overnight
Experimental: FIG. 2 depicts the effect in apoptosis reduction in isolated mouse islets after individual and combined treatment of LSF and Ex-4 in vitro.
as §1
Cellular death (apoptosis) was quantified using an established method in mouse islets exposed to pro-inflammatory cytokines.

[6] = test system: mouse islets; test: MTT assay of cell metabolism and mitochondrial function in isolated islets; type: cell-based; conditions: LSF 50 μM, Ex-4 20 nM
Experimental: FIG. 3 depicts the effect of mitochondrial metabolism (as reflected by level of MTT metabolite) observed in isolated mouse islets after individual and combined treatment with LSF and Ex-4.
as §1
We previously published, in murine β-cell lines and human islets that both ATP production and mitochondrial metabolism (MTT metabolite levels) were increased by LSF treatment.

[7] = test system: human islets; conditions: previously published; cited from earlier work
[8] = test system: overt diabetic NOD (Non-Obese Diabetic) mice; conditions: previously overt diabetic NOD mice; literature study; cited from earlier work

C[C@@H](O)CCCCn1c(=O)c2c(ncn2C)n(C)c1=O [LSF, Lisofylline]
insulin release upon glucose stimulation [1]: increase insulin release
time after pump implantation until diabetes reversal / hyperglycemia controlled ([2]; diabetic NOD mice, S.C. mini-pump): 10 to 12 days
diabetes reversal / control of hyperglycemia during pump therapy ([2]; newly diagnosed diabetic NOD mice, S.C. osmotic mini-pump, 28 days): moderate ability to control blood glucose levels; also recorded: prevented worsening of hyperglycemia
Brdu-positive cells in pancreatic tissue [3]: detected
ATP production and mitochondrial metabolism (MTT metabolite levels) [4]: increased
protection of islet cells from pro-inflammatory cytokines [5]: could protect isolated islet cells
mitochondrial metabolism (MTT metabolite level) [6]: increase mitochondrial metabolism
ATP production and mitochondrial metabolism (MTT metabolite levels) [7]: increased

glucagon-like peptide-1 (HAEGTFTSDVSSYLEGQAAKEFIAWLVKGR; ends and bridges not checked; UniProt P01275 98-127, looked up) [GLP-1, "incretin synthesized in the small and large intestine by the L-type cells ... released in response to food ingestion"]
effect on hyperglycemia [8]: no effect
